From US20070249526A1, “PROCESS FOR THE PREPARATION OF CYCLIC PEPTIDES” (priority 2003, published 2007)

Columns and labels:
[1] = tested on: rat models of human disease; conditions: literature refs 10-15; cited from earlier work
physchem = assay type: physicochemical
Protocol: The crude product of Example 15 was purified by prep HPLC using 0.5% AcOH in water and 0.5% AcOH in 90% ACN in water as buffers. The crude product was purified in a gradient program and major fraction was collected. After lyophilization, it gave a white powder which failed the solubility test at 10 mg/ml. ^19F NMR confirmed that there were still two TFA salts in the formula (FIG. 1). This product was repurified on the prepHPLC once more, the major fraction was collected and lyophilized to give 3D53. 12 mg of this product dissolved in 1 ml water gave a clear solution.

human C5a receptor [2] = target: T1, human C5a receptor (Homo sapiens, UniProt P21730); conditions: literature refs 6-9; cited from earlier work
T1 construct: host or cells: human cells; neutrophils, macrophages, polymorphonuclear leukocytes
T1 sequence (P21730 1-350): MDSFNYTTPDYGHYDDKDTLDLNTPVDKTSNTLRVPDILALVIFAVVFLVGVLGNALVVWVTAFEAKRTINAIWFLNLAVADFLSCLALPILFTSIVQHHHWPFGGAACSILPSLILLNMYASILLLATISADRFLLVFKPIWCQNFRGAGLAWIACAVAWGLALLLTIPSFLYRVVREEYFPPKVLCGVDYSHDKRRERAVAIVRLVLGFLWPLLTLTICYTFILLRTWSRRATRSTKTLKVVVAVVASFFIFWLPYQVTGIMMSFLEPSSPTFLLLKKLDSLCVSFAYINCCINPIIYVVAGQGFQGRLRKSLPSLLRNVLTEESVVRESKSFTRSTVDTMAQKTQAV

human C5a receptor [3] = target: T1, human C5a receptor; conditions: literature refs 6-9; cited from earlier work; remark: listed apart in the source

Structure (SMILES): CC(=O)N[C@@H](Cc1ccccc1)C(=O)N[C@H]1CCCNC(=O)[C@H](CCCNC(=N)N)NC(=O)C(Cc2c[nH]c3ccccc23)NC(=O)[C@@H](CC2CCCCC2)NC(=O)C2CCCN2C1=O (stereo partly drawn) [Compound 1, Ac-Phe[Orn-Pro-D-Cha-Trp-Arg]]
- inhibition in vivo in rat models of human disease [1]: potent inhibition
- solubility (physchem): < 10000 µg/mL
- amount dissolved giving a clear solution (physchem; in 1 ml water, product repurified by prepHPLC, no TFA salt by 19F NMR): ≥ 12 mg
- inhibition in vitro of C5a binding to human cells (human C5a receptor [2]): potent inhibition
- inhibition in vitro of C5a-mediated activation of neutrophils and macrophages, chemotaxis, and cytokine release (human C5a receptor [3]): potent inhibition
